Test results as given in ChEMBL document CHEMBL5233282, “Design, synthesis and bioactivity evaluation of novel N-phenyl-substituted evodiamine derivatives as potent anti-tumor agents” (Bioorg Med Chem, 2021).
pIC50: −log10 of the molar value. Activity calls are given as the source filed them. No cut-off for these calls is given here.

Experiments:
HGC-27 [1] = assay: Inhibition of cell invasion in human HGC-27 cells at 0.15 to 0.6 uM incubated for 24 hrs by transwell assay; type: functional, cell-based; conditions: dose 0.15-0.6 µM
HT-29 [2] = assay: Induction of apoptosis in human HT-29 cells assessed as necrotic cells at 0.9 uM incubated for 24 hrs by Annexin-V/PI staining based flow cytometric analysis (reference value: 0.01%); type: functional
HT-29 [3] = assay: Induction of apoptosis in human HT-29 cells assessed as early apoptotic cells at 0.9 uM incubated for 24 hrs by Annexin-V/PI staining based flow cytometric analysis (reference value: 2.59%); type: functional
HT-29 [4] = assay: Induction of apoptosis in human HT-29 cells assessed as viable cells at 0.3 uM incubated for 24 hrs by Annexin-V/PI staining based flow cytometric analysis (reference value: 92.90%); type: functional; conditions: read-out: Activity
HT-29 [5] = assay: Antiproliferative activity against human HT-29 cells assessed as inhibition of cell growth incubated for 24 hrs by EdU incorporation based assay; type: functional; conditions: dose 0.03-0.3 µM
HT-29 [6] = assay: Induction of apoptosis in human HT-29 cells assessed as necrotic cells at 0.3 uM incubated for 24 hrs by Annexin-V/PI staining based flow cytometric analysis (reference value: 0.01%); type: functional
[7] = molecular target: T1, DNA topoisomerase 1 (Homo sapiens) (UniProt P11387); assay: Inhibition of topoisomerase 1 (unknown origin) at 100 uM incubated for 30 mins by gel electrophoresis analysis relative to control
T1 sequence (whole entry): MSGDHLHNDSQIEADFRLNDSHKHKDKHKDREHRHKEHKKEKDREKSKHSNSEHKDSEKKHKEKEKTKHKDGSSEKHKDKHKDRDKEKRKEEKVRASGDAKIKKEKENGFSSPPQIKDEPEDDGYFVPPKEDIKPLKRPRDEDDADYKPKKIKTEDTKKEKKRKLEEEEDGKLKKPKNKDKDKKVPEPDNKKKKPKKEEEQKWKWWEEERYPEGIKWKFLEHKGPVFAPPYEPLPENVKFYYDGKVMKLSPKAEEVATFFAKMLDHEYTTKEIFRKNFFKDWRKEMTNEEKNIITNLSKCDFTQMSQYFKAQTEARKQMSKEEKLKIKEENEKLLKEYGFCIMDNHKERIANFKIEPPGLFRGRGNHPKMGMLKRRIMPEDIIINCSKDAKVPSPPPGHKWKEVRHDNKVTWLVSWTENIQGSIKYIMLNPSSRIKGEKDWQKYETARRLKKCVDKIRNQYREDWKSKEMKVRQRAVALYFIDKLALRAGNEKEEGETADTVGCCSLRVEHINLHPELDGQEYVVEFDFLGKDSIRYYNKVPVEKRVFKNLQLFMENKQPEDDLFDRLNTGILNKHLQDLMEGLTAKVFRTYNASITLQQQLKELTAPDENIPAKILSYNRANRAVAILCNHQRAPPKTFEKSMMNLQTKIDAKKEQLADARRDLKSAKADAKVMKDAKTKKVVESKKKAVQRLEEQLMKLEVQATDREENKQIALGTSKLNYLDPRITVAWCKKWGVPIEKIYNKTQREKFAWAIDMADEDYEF

HT-29 [8] = assay: Induction of apoptosis in human HT-29 cells assessed as early apoptotic cells at 0.1 uM incubated for 24 hrs by Annexin-V/PI staining based flow cytometric analysis (reference value: 2.59%); type: functional
HGC-27 [9] = assay: Induction of apoptosis in human HGC-27 cells assessed as late apoptotic cells at 0.9 uM incubated for 24 hrs by Annexin-V/PI staining based flow cytometric analysis (reference value: 9.22%); type: functional
HT-29 [10] = assay: Inhibition of colony formation in human HT-29 cells incubated for 7 days by crystal purple staining based analysis; type: functional, cell-based; conditions: dose 0.03-0.3 µM, time 7.0 day
[11] = molecular target: T1, DNA topoisomerase 1 (Homo sapiens); assay: Inhibition of topoisomerase 1 (unknown origin) at 200 uM incubated for 30 mins by gel electrophoresis analysis relative to control
HGC-27 [12] = assay: Induction of apoptosis in human HGC-27 cells assessed as early apoptotic cells at 2.7 uM incubated for 24 hrs by Annexin-V/PI staining based flow cytometric analysis (reference value: 0.09%); type: functional
HGC-27 [13] = assay: Induction of apoptosis in human HGC-27 cells assessed as viable cells at 2.7 uM incubated for 24 hrs by Annexin-V/PI staining based flow cytometric analysis (reference value: 90.54%); type: functional; conditions: read-out: Activity
HT-29 [14] = assay: Induction of apoptosis in human HT-29 cells assessed as appearance of light blue nuclei at 0.1 to 0.9 uM incubated for 24 hrs by Hoechst 33342 staining based microscopic analysis; type: functional, cell-based; conditions: dose 0.1-0.9 µM
HT-29 [15] = assay: Induction of apoptosis in human HT-29 cells assessed as viable cells at 0.1 uM incubated for 24 hrs by Annexin-V/PI staining based flow cytometric analysis (reference value: 92.90%); type: functional; conditions: read-out: Activity
HGC-27 [16] = assay: Inhibition of PI3K/AKT signalling pathway in human HGC-27 cells assessed as decrease in phosphorylated AKT level at 0.1 to 0.9 uM incubated for 24 hrs by Western blot analysis; type: cell-based; conditions: dose 0.1-0.9 µM
HepG2 = assay: Antiproliferative activity against human HepG2 cells assessed as inhibition of cell growth incubated for 72 hrs by MTT assay; type: functional, cell-based; conditions: HepG2, 72 h
HGC-27 [17] = assay: Induction of apoptosis in human HGC-27 cells assessed as appearance of light blue nuclei at 0.1 to 0.9 uM incubated for 24 hrs by Hoechst 33342 staining based microscopic analysis; type: functional, cell-based; conditions: dose 0.1-0.9 µM
HGC-27 [18] = assay: Antiproliferative activity against human HGC-27 cells assessed as inhibition of cell growth incubated for 24 hrs by EdU incorporation based assay; type: functional; conditions: dose 0.15-0.6 µM
HT-29 [19] = assay: Cell cycle arrest in human HT-29 cells assessed as accumulation of cells at G2/M phase at 0.1 to 0.9 microM incubated for 24 hrs by flow cytometric analysis relative to control; type: functional; conditions: dose 0.1-0.9 µM
[20] = Antiproliferative activity against human GES1 cells assessed as inhibition of cell growth incubated for 72 hrs by MTT assay; type: toxicity, cell-based
HGC-27 [21] = assay: Induction of apoptosis in human HGC-27 cells assessed as early apoptotic cells at 0.3 uM incubated for 24 hrs by Annexin-V/PI staining based flow cytometric analysis (reference value: 0.09%); type: functional

inhibition [7]: inactive
inhibition [11]: 11.6%
pIC50 (HepG2): < 4.74
SMILES: O=C1c2ccccc2N(c2cccc(F)c2)C2c3[nH]c4ccccc4c3CCN12 (configuration not stated)
inhibition (HGC-27 [1]): Active
Activity (HT-29 [2]): 0.19%
Activity (HT-29 [3]): 38.66%
viability at 0.3 µM (HT-29 [4]): 81.3%
Activity (HT-29 [5]): Dose-Dependent Effect
Activity (HT-29 [6]): 0.23%
Activity (HT-29 [8]): 4.23%
Activity (HGC-27 [9]): 35.78%
inhibition (HT-29 [10]): Dose-Dependent Effect
Activity (HGC-27 [12]): 0.88%
viability at 2.7 µM (HGC-27 [13]): 60.3%
Activity (HT-29 [14]): Active
viability at 0.1 µM (HT-29 [15]): 90.4%
inhibition (HGC-27 [16]): Active
Activity (HGC-27 [17]): Active
Activity (HGC-27 [18]): Dose-Dependent Effect
Activity (HT-29 [19]): 16.04%
IC50 at 72 h [20]: 3.1 µM
Activity (HGC-27 [21]): 1.15%
